Type in all cases: biochemical
The target in one assay is T1, meprin α (Homo sapiens, UniProt Q16819).
T1 construct: Strep-tag; made in house; host or cells: BTI-TN-5B1-4 insect cells (baculovirus, amplified in Sf9)
T1 sequence (Q16819 66-746): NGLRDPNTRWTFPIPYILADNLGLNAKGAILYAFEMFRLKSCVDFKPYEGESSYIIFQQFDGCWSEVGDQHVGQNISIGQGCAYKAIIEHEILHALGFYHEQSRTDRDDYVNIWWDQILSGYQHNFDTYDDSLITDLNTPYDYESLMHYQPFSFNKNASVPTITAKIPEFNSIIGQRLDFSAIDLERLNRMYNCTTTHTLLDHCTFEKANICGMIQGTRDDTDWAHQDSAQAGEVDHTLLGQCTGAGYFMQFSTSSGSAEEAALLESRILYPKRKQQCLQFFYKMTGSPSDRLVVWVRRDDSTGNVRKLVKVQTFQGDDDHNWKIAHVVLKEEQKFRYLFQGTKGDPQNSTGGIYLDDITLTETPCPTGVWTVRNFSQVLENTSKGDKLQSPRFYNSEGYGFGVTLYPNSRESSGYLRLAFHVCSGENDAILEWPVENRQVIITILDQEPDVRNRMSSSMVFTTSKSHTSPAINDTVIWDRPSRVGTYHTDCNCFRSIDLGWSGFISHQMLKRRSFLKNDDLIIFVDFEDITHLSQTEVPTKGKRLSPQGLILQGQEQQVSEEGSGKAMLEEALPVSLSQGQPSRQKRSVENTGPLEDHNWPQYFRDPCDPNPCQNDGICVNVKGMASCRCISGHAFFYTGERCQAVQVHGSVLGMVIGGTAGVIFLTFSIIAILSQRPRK
As to the kind of experiment: Meprin α assay in a 384-well plate (fluorogenic substrate Mca-YVADAPK-K(Dnp)). How it is done:
(§1) Recombinant human meprin α and meprin β were expressed using the Bac-to-Bac expression system (Gibco Life Technologies, Paisley, UK) as described before. Media and supplements were obtained from Gibco Life Technologies. Recombinant Baculoviruses were amplified in adherently growing Spodoptera frugiperda (Sf)9 insect cells at 27 °C in Grace’s insect medium supplemented with 10% fetal bovine serum, 50 units/mL penicillin, and 50 μg/mL streptomycin. Protein expression was performed in 500 mL suspension cultures of BTI-TN-5B1-4 insect cells growing in Express Five SFM supplemented with 4 mM glutamine, 50 units/mL penicillin, and 50 μg/mL streptomycin in Fernbach-flasks using a Multitron orbital shaker (INFORS AG, Bottmingen, Switzerland). Cells were infected at a density of 2 × 10^6 cells/mL with an amplified viral stock at a MOI of ~10. […] Meprins were activated by trypsin, which was removed afterwards by affinity chromatography using a column containing immobilized chicken ovomucoid, a trypsin inhibitor.
(§2) Both assays followed the same general protocol. […] After 30 min incubation at RT, the reactions were started by addition of 5 µL of 2× solutions of substrates (20 µM, meprin α Mca-YVADAPK-K(Dnp), and for meprin β Mca-EDEDED-K(Dnp)).

Another assay addresses T2, ADAM17 (Homo sapiens, UniProt P78536).
T2 construct: purchased R&D Systems 930-ADB
The experiment in a line: ADAM17 assay. How it is done: MMP-1, MMP-2, MMP-8, MMP-9, MMP-10, MMP-13, MMP-14, ADAM10, ADAM17 and Mca-KPLGL-Dpa-AR-NH2 fluorogenic peptide substrate were purchased from R&D Systems (cat # 901-MP, 902-MP, 908-MP, 911-MP, 910-MP, 511-MM, 918-MP, 936-AD, 930-ADB, and ES010, respectively). All common chemicals were purchased from Sigma. NFF449 was purchased from Tocris (cat# 1391) and actinonin was from Sigma-Aldrich, St. Louis, MO, USA (cat# 01809).
Both assays followed the same general protocol. 2.5 µL of 2× enzyme solution (20 nM) in assay buffer (10 mM HEPES, 0.001% Brij-35, pH 7.5) were added to solid bottom black 384 plates (Greiner, cat# 789075). Next, test compounds and pharmacological controls were added to corresponding wells using a 384-pin tool device (V&P Scientific, San Diego). After 30 min incubation at RT, the reactions were started by addition of 2.5 µL of 2× solutions of substrate (R&D Systems cat#: ES010, Mca-KPLGL-Dpa-AR-NH2, 20 µM). Reactions were incubated at RT for 2 h, after which the fluorescence was measured using a Perkin Elmer Viewlux multimode microplate imager (λexcitation = 324 nm, λemission = 393 nm). All compounds were tested in 10-point, 1:3 serial dilutions dose-response format starting with highest concentration of 100 µM. IC50 values were determined using non-linear regression analysis using the GraphPad Prism 8.0 suite of programs.

The next assay concerns the target T3, human meprin β (Homo sapiens, UniProt Q16820).
T3 construct: His-tag; made in house; host or cells: BTI-TN-5B1-4 insect cells (baculovirus, amplified in Sf9)
T3 sequence (Q16820 62-701): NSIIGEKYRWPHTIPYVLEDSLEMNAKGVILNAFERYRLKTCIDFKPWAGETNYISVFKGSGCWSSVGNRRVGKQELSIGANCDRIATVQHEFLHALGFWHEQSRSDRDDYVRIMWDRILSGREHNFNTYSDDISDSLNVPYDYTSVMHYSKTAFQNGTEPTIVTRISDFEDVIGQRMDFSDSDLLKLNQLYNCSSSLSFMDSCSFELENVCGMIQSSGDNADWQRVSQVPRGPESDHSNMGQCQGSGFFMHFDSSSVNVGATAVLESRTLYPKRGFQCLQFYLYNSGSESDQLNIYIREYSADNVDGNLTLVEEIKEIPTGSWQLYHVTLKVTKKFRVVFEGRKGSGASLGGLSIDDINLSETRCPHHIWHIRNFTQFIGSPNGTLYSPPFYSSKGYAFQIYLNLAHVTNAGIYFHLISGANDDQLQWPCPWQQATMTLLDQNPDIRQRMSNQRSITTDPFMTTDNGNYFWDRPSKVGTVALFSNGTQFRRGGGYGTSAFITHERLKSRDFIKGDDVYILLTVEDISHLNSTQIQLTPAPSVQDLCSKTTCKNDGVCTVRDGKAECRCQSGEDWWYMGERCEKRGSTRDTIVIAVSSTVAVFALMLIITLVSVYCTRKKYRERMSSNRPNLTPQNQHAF
The experiment in a line: Meprin β assay in a 384-well plate (fluorogenic substrate Mca-EDEDED-K(Dnp)). The conditions noted are these: for IC50: triplicate, ± SD. How it is done: as §1, §2

[1] abbreviates: scale-up batch, higher doses tested, Figure 4A.

Values joined by “and” are separate entries in the source; they are usually repeats but may differ in a detail not shown here. Equal entries are not always repeated. Where two headings read alike, the source gives them in different places.

T2 sequence (P78536 215-824): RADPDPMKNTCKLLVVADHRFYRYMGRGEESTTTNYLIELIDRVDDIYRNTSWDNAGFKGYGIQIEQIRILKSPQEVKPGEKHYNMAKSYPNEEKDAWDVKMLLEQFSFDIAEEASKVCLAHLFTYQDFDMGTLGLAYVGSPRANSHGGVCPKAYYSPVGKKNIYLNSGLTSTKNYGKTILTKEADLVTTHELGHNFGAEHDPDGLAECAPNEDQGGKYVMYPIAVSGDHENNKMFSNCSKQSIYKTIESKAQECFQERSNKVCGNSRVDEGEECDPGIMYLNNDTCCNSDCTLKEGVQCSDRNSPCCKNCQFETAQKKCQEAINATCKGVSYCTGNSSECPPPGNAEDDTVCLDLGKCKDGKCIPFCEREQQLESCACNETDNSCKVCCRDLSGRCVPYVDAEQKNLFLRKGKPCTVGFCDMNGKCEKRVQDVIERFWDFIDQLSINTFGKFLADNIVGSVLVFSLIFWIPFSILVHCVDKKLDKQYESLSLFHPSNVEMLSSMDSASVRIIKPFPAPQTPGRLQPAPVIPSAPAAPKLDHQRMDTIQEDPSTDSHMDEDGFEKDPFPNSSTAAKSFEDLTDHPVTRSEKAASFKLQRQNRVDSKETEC

One may read the IC50 as the point on the concentration scale where inhibition reaches its midpoint. For `COc1cc(OC)nc(SCc2nnc(SCC(=O)NO)n2-c2ccc(N(C)C)cc2)n1` [SR24717], the IC50 is 490 to 670 nM at meprin α; 660 ± 30 nM on meprin α (triplicate, ± SD); more than 100000 nM against ADAM17; ≥ 70000 nM and 70000 nM against human meprin β. In addition, the “fold more potent than the HTS hit SR19855 in binding meprin α” value on meprin α is ~ 2 fold. In addition, the “meprin α/β fold selectivity (ratio of IC50 values)” value on meprin α (meprin α over meprin β) was > 100 fold and 106 fold and ~ 106 fold. The “extent of meprin α inhibition (in words)” value at meprin α (setting [1]) is listed as “full meprin α inhibition”. In addition, on human meprin β (setting [1]), the “extent of meprin β inhibition (in words)” value was “only partial meprin β inhibition”.

`CCCCC[C@H](CC(=O)NO)C(=O)N[C@H](C(=O)N1CCC[C@H]1CO)C(C)C` [Actinonin, actinonin, reference compound]: the IC50 was found to be 4 nM on meprin α (triplicate, ± SD); 200 ± 20 nM at ADAM17; 4800 ± 500 nM against human meprin β.

(Values after PMC7997411, “Discovery and Optimization of Selective Inhibitors of Meprin α (Part II)” (Pharmaceuticals, 2021).)
